Like-named read-outs stand apart in the source and are kept apart here.
Experiments:
phospho-ERK = test: Cellular phospho-ERK assay; assay type: cell-based; details: NCI-H358 cells, 2 hour incubation, ratio of p-Erk vs total Erk, read-out: IC50 (nM) pERK (Cell)
Summary of the method: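 NCI-H358 cells seeded overnight, then exposed to compound dose-response titrations for 2 hours at 37° C. in RPMI. Lysates assayed by AlphaLISA SureFire Ultra multiplex for p-Erk and total Erk; ratio p-Erk/total Erk used as readout, IC50 from 4-parameter logistic fit.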

[1] = target: Biotinylated KRAS G12C protein (Homo sapiens (Human), UniProt P01116, C118S/C51S/C80L/G12C); test: SOS-catalyzed nucleotide exchange assay (TR-FRET); assay type: biochemical; details: in vitro apparent potency; preincubation time of 60 minutes prior to addition of SOS
Summary of the method: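 Biotinylated KRAS G12C preloaded with Bodipy-GDP and Tb-streptavidin, then incubated with compound (10-point, 3-fold series) for 60 min at RT. Exchange started with SOS and GTP for 60 min. TR-FRET 520/495 ratio normalised to DMSO and saturating-inhibitor controls; four-parameter fit.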

Row | Compound | IC50 (phospho-ERK) [nM] | IC50 [1] [nM] | IC50 (phospho-ERK; Homo sapiens, NCI-H358, 2 h) [nM]
1 | C=CC(=O)N1C[C@H](C)N(c2nc(=O)n3c4nc(c(F)cc24)-c2cc(F)c(F)cc2OCCOc2ccnc(C(C)C)c2-3)C[C@H]1C [Example 84, 2-[(2S,5R)-2,5-dimethyl-4-(prop-2-enoyl)piperazin-1-yl]-15,16,20-trifluoro-6-(propan-2-yl)-11,12-dihydro-4H-1,18-(ethanediylidene)pyrido[4,3-e]pyrimido[1,6-g][1,4,7,9]benzodioxadiazacyclododecin-4-one] | – | 38 | 119
2 | C=CC(=O)N1C[C@H](C)N(c2nc(=O)n3c4nc(c(Cl)cc24)-c2c(F)cccc2OCC(F)(F)COc2ccnc(C(C)C)c2-3)C[C@H]1C [Example 59, 21-chloro-2-[(2S,5R)-2,5-dimethyl-4-(prop-2-enoyl)piperazin-1-yl]-12,12,18-trifluoro-6-(propan-2-yl)-12,13-dihydro-4H,11H-1,19-(ethanediylidene)pyrido[4,3-f]pyrimido[1,6-h][1,5,8,10] benzodioxadiazacyclo-tridecin-4-one] | – | 0.91 | 6.1
3 | C=CC(=O)N1CCN(c2nc(=O)n3c4nc(c(F)cc24)-c2c(F)cccc2CCCOc2ccnc(C(C)C)c2-3)[C@@H](C)C1 (single isomer, unassigned) [Example 20a] | 30 | 12 | –
4 | C=CC(=O)N1CCN(c2nc(=O)n3c4nc(c(F)cc24)-c2ccnn2CCCCc2ccnc(C(C)C)c2-3)[C@@H](C)C1 [Example 5, 20-fluoro-2-[(2S)-2-methyl-4-(prop-2-enoyl)piperazin-1-yl]-6-(propan-2-yl)-10,11,12,13-tetrahydro-4H-1,18-(ethanediylidene)-pyrazolo[5,1-e]pyrido-[4,3-k]pyrimido[1,6-a]-[1,3,6]triazacyclododecin-4-one] | – | 898 | 4440
5 | C=CC(=O)N1CCN(c2nc(=O)n3c4nc(c(F)cc24)-c2c(F)cccc2OCCCc2ccnc(C(C)C)c2-3)C(Cc2ccccc2)C1 (centres unmarked) [Example 100, 2-[2-benzyl-4-(prop-2-enoyl)piperazin-1-yl]-17,20-difluoro-6-(propan-2-yl)-11,12-dihydro-4H,10H-1,18-ethenopyrido[4,3-e]pyrimido[1,6-g][1,7,9]benzoxadiazacyclododecin-4-one] | – | 25 | 508
6 | C=CC(=O)N1CCN(c2nc(=O)n3c4nc(c(F)cc24)-c2c(F)cccc2OCCCCc2ccnc(C(C)C)c2-3)[C@@H](C)C1 (single isomer, unassigned) [Example 4a] | 1.5 | 2.4 | –
7 | C=CC(=O)N1CCN(c2nc(=O)n3c4nc(c(F)cc24)-c2c(ccc(F)c2F)OCC(F)(F)CCc2ccnc(C(C)C)c2-3)C[C@H]1C [Example 66, 12,12,17,18,21-pentafluoro-2-[(3R)-3-methyl-4-(prop-2-enoyl)piperazin-1-yl]-6-(propan-2-yl)-10,11,12,13-tetrahydro-4H-1,19-(ethanediylidene) pyrido[4,3-f]pyrimido[1,6-h] [1,8,10]benzoxadiazacyclo-tridecin-4-one] | – | 5.3 | 30
8 | C=CC(=O)N1C[C@H](C)N(c2nc(=O)n3c4nc(c(F)cc24)-c2c(F)cccc2OCCc2ccnc(C(C)C)c2-3)C[C@H]1C [Example 96, 2-[(2S,5R)-2,5-dimethyl-4-(prop-2-enoyl)piperazin-1-yl]-16,19-difluoro-6-(propan-2-yl)-10,11-dihydro-4H-1,17-ethenopyrido[4,3-d]pyrimido[1,6-f][1,6,8]benzoxadiazacycloundecin-4-one] | – | 3.8 | 32
9 | C=CC(=O)N1CC(C)N(c2nc(=O)n3c4nc(c(C)cc24)-c2c(F)ccc(F)c2OCCOc2ccnc(C(C)C)c2-3)CC1C [Example 110, 2-[(2S,5R)-2,5-dimethyl-4-(prop-2-enoyl)piperazin-1-yl]-14,17-difluoro-20-methyl-6-(propan-2-yl)-11,12-dihydro-4H-1,18-ethenopyrido[4,3-e]pyrimido[1,6-g][1,4,7,9]benzodioxadiazacyclododecin-4-one] | 23 | 4.5 | –
10 | C=CC(=O)N1C[C@H](C)N(c2nc(=O)n3c4nc(c(F)cc24)-c2c(F)cccc2OC(C)CCc2ccnc(C(C)C)c2-3)C[C@H]1C (single isomer, unassigned) [Example 81] | – | 2.9 | 21
11 | C=CC(=O)N1CC(C)N(c2nc(=O)n3c4nc(c(Cl)cc24)-c2c(F)ccc(F)c2OCCOc2ccnc(C(C)C)c2-3)CC1C [Example 50, (5aSa,17aRa)-20-chloro-2-[(2S,5R)-2,5-dimethyl-4-(prop-2-enoyl)piperazin-1-yl]-14,17-difluoro-6-(propan-2-yl)-11,12-dihydro-4H-1,18-(ethanediylidene)pyrido[4,3-e]pyrimido[1,6-g][1,4,7,9]benzodioxadiazacyclododecin-4-one] | 4.4 | 1.1 | –
12 | C=CC(=O)N1C[C@H](C)N(c2nc(=O)n3c4nc(c(F)cc24)-c2c(ccc(F)c2F)OCCC(C)c2ccnc(C(C)C)c2-3)C[C@H]1C (single isomer, unassigned) [Example 91] | – | 113 | 410
13 | C=CC(=O)N1C[C@H](C)N(c2nc(=O)n3c4nc(c(Cl)cc24)-c2cc(F)cc(F)c2OCCCc2ccnc(C(C)C)c2-3)C[C@H]1C [Example 82, 20-chloro-2-[(2S,5R)-2,5-dimethyl-4-(prop-2-enoyl)piperazin-1-yl]-14,16-difluoro-6-(propan-2-yl)-11,12-dihydro-4H,10H-1,18-ethenopyrido[4,3-e]pyrimido[1,6-g][1,7,9]benzoxadiazacyclododecin-4-one] | – | 5.9 | 36
14 | C=CC(=O)N1CC(C)N(c2nc(=O)n3c4nc(c(F)cc24)-c2c(F)ccc(F)c2OCC(F)(F)CCc2ccnc(C(C)C)c2-3)CC1C [Example 55, (5aRa,18aRa)-2-[(2S,5R)-2,5-dimethyl-4-(prop-2-enoyl)piperazin-1-yl]-12,12,15,18,21-pentafluoro-6-(propan-2-yl)-10,11,12,13-tetrahydro-4H-1,19-(ethanediylidene)pyrido[4,3-f]pyrimido[1,6-h][1,8,10] benzoxadiazacyclotri-decin-4-one] | – | 2.7 | 29
15 | C=CC(=O)N1CCN(c2nc(=O)n3c4nc(c(F)cc24)-c2c(ccc(F)c2F)OCC(F)(F)CCc2ccnc(C(C)C)c2-3)[C@@H](C)C1 [Example 97, 12,12,17,18,21-pentafluoro-2-[(2S)-2-methyl-4-(prop-2-enoyl)piperazin-1-yl]-6-(propan-2-yl)-10,11,12,13-tetrahydro-4H-1,19-(ethanediylidene)pyrido[4,3-f]pyrimido[1,6-h][1,8,10]benzoxadiazacyclotridecin-4-one] | 3 | 0.56 | –
16 | C=C(C#N)C(=O)N1C[C@H](C)N(c2nc(=O)n3c4nc(c(Cl)cc24)-c2c(F)ccc(F)c2OCCCc2ccnc(C(C)C)c2-3)C[C@H]1C [Example 121, 2-{(2R,5S)-4-[20-chloro-14,17-difluoro-4-oxo-6-(propan-2-yl)-11,12-dihydro-4H,10H-1,18-ethenopyrido[4,3-e]pyrimido[1,6-g][1,7,9]benzoxadiazacyclododecin-2-yl]-2,5-dimethylpiperazine-1-carbonyl}prop-2-enenitrile] | > 30000 | 195 | –
17 | C=CC(=O)N1C[C@H](C)N(c2nc(=O)n3c4nc(c(F)cc24)-c2cccc4cnn(c24)CCCCc2ccnc(C(C)C)c2-3)C[C@H]1C [Example 68, 2-[(2S,5R)-2,5-dimethyl-4-(prop-2-enoyl)piperazin-1-yl]-22-fluoro-6-(propan-2-yl)-10,11,12,13-tetrahydro-4H-1,20-(ethanediylidene)pyrido [4′,3′:12,13]pyrimido [1′,6′:1,2][1,3,7]triaza-cyclotridecino[5,6,7-hi] indazol-4-one] | – | 4.5 | 6.3

The remaining lines, values ahead:

Row | IC50 (phospho-ERK) [nM] | IC50 [1] [nM] | IC50 (phospho-ERK; Homo sapiens, NCI-H358, 2 h) [nM] | Compound
18 | 651 | 192 | – | 17,20-difluoro-12-hydroxy-2-[(2S)-2-methyl-4-(prop-2-enoyl)piperazin-1-yl]-6-(propan-2-yl)-10,11,12,13-tetrahydro-4H-1,18-ethenopyrido[3,4-e]pyrimido[6,1-c][2,4]benzodiazacyclododecin-4-one [Example 118-1]
19 | 22100 | 8530 | – | C=CC(=O)N1C[C@H](C)N(c2nc(=O)n3c4nc(c(F)cc24)-c2c(F)cccc2OCC(F)(F)COc2ccnc(C(C)C)c2-3)C[C@H]1C (single isomer, unassigned) [Example 13b]
20 | – | 3.9 | 6.9 | C=CC(=O)N1CCN(c2nc(=O)n3c4nc(c(F)cc24)-c2c(F)cccc2OCCOc2ccnc(C(C)C)c2-3)[C@@H](C)C1 (single isomer, unassigned) [Example 12a]
21 | 35 | 10 | – | C=CC(=O)N1CCN(c2nc(=O)n3c4nc(c(F)cc24)-c2c(F)cccc2COCCc2ccnc(C(C)C)c2-3)[C@@H](C)C1 [Example 18a, 17,20-difluoro-2-[(2S)-2-methyl-4-(prop-2-enoyl)piperazin-1-yl]-6-(propan-2-yl)-10,11-dihydro-1,18-ethenopyrido[3,4-e]pyrimido[6,1-c][9,2,4]benzoxadiazacyclododecin-4(13H)-one]
22 | 27 | 7.2 | – | C=CC(=O)N1C[C@H](C)N(c2nc(=O)n3c4nc(c(F)cc24)-c2c(F)cccc2OCC(F)(F)COc2ccnc(C(C)C)c2-3)C[C@H]1C (single isomer, unassigned) [Example 13a]
